Data: PubChem BioAssay (NCI)
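Each compound was tested at five concentrations against cells in 96-well plates for 48 hours. TGI: concentration producing complete growth inhibition.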

Key:
Assay in all cases: growth of human tumour cells (NCI), 48 h
[1] = tested on: COLO 205 colon
[2] = tested on: SR leukemia
[3] = tested on: HCT-116 colon
[4] = tested on: ACHN renal
[5] = tested on: NCI-H23 lung
[6] = tested on: T-47D breast
[7] = tested on: RPMI-8226 leukemia
[8] = tested on: 786-0 renal
[9] = tested on: U251 CNS
[10] = tested on: BT-549 breast
[11] = tested on: SNB-75 CNS
[12] = tested on: SF-539 CNS
[13] = tested on: UO-31 renal
[14] = tested on: HL-60(TB) leukemia
[15] = tested on: SF-268 CNS
[16] = tested on: SK-MEL-2 melanoma
[17] = tested on: OVCAR-5 ovarian
[18] = tested on: EKVX NSCLC
[19] = tested on: HOP-62 NSCLC
[20] = tested on: OVCAR-4 ovarian
[21] = tested on: HT29 colon
[22] = tested on: MDA-N
[23] = tested on: K-562 leukemia
[24] = tested on: CCRF-CEM leukemia
[25] = tested on: NCI-H460 lung
[26] = tested on: SF-295 CNS
[27] = tested on: HCT-15 colon
[28] = tested on: KM12 colon
[29] = tested on: UACC-62 melanoma
[30] = tested on: MCF7 breast
[31] = tested on: PC-3 prostate
[32] = tested on: MOLT-4 leukemia
[33] = tested on: OVCAR-8 ovarian
[34] = tested on: HS 578T breast
[35] = tested on: NCI/ADR-RES ovarian
[36] = tested on: RXF 393 renal
[37] = tested on: MDA-MB-231 breast
[38] = tested on: IGROV1 ovarian
[39] = tested on: UACC-257 melanoma
[40] = tested on: HCC-2998 colon
[41] = tested on: SW-620 colon
[42] = tested on: DU-145 prostate
[43] = tested on: TK-10 renal
[44] = tested on: SK-MEL-5 melanoma
[45] = tested on: SNB-19 CNS
[46] = tested on: OVCAR-3 ovarian
[47] = tested on: MDA-MB-435
[48] = tested on: A498 renal
[49] = tested on: CAKI-1 renal
[50] = tested on: M14 melanoma
[51] = tested on: NCI-H522 lung
[52] = tested on: SN12C renal
[53] = tested on: SK-MEL-28 melanoma
[54] = tested on: SK-OV-3 ovarian
[55] = tested on: A549 NSCLC
[56] = tested on: HOP-92 NSCLC
[57] = tested on: LOX IMVI melanoma
[58] = tested on: NCI-H226 lung
[59] = tested on: MALME-3M melanoma

Compound Cc1cc(S(=O)(=O)Nc2nc3ccccc3[nH]2)c(S)cc1Cl has a TGI [1] greater than 100 µM, a TGI [2] greater than 100 µM and a TGI [3] of 76.5 µM. For the same compound, the TGI [4] was greater than 100 µM, the TGI [5] was greater than 100 µM and the TGI [6] was greater than 100 µM. It also gave a TGI [7] greater than 100 µM, a TGI [8] greater than 100 µM and a TGI [9] of 78.3 µM. The TGI [10] was greater than 100 µM, the TGI [11] was greater than 100 µM and the TGI [12] was greater than 100 µM. It also gave a TGI [13] greater than 100 µM, a TGI [14] greater than 100 µM and a TGI [15] greater than 100 µM. It also gave a TGI [16] greater than 100 µM, a TGI [17] greater than 100 µM and a TGI [18] of 99.5 µM. The TGI [19] was greater than 100 µM, the TGI [20] was greater than 100 µM and the TGI [21] was greater than 100 µM. The TGI [22] was greater than 100 µM, the TGI [23] was greater than 100 µM and the TGI [24] was 80.6 µM. The TGI [25] was greater than 100 µM, the TGI [26] was greater than 100 µM and the TGI [27] was greater than 100 µM. It also gave a TGI [28] greater than 100 µM, a TGI [29] greater than 100 µM and a TGI [30] greater than 100 µM. The TGI [31] was greater than 100 µM, the TGI [32] was greater than 100 µM and the TGI [33] was greater than 100 µM. It also gave a TGI [34] greater than 100 µM, a TGI [35] greater than 100 µM and a TGI [36] greater than 100 µM. For the same compound, the TGI [37] was greater than 100 µM, the TGI [38] was greater than 100 µM and the TGI [39] was greater than 100 µM. The TGI [40] was greater than 100 µM, the TGI [41] was greater than 100 µM and the TGI [42] was greater than 100 µM. It also gave a TGI [43] greater than 100 µM, a TGI [44] greater than 100 µM and a TGI [45] greater than 100 µM. It also gave a TGI [46] greater than 100 µM, a TGI [47] greater than 100 µM and a TGI [48] greater than 100 µM. It also gave a TGI [49] greater than 100 µM, a TGI [50] greater than 100 µM and a TGI [51] greater than 100 µM. The TGI [52] was greater than 100 µM, the TGI [53] was 73.5 µM and the TGI [54] was greater than 100 µM. The TGI [55] was greater than 100 µM, the TGI [56] was greater than 100 µM and the TGI [57] was 39.8 µM.
FC(F)(F)c1ccc2c(c1)nc(Cc1ccc(Cl)c(Cl)c1)n2CC1CCCN2CCCCC12 (stereo not drawn) showed a TGI [1] of 33.5 µM, a TGI [2] of 74.6 µM and a TGI [3] of 30.6 µM. For the same compound, the TGI [4] was greater than 100 µM, the TGI [6] was greater than 100 µM and the TGI [7] was greater than 100 µM. For the same compound, the TGI [8] was 30.7 µM, the TGI [9] was 59.7 µM and the TGI [10] was 85.2 µM. The TGI [11] was greater than 100 µM, the TGI [12] was 40 µM and the TGI [58] was 90.7 µM. It also gave a TGI [14] of 51.3 µM, a TGI [15] greater than 100 µM and a TGI [16] of 76.3 µM. The TGI [17] was 46.2 µM, the TGI [18] was 80.3 µM and the TGI [19] was greater than 100 µM. It also gave a TGI [20] greater than 100 µM, a TGI [21] of 28.2 µM and a TGI [22] of 38.8 µM. It also gave a TGI [23] greater than 100 µM, a TGI [25] of 52.4 µM and a TGI [26] of 51.7 µM. It also gave a TGI [27] greater than 100 µM, a TGI [28] greater than 100 µM and a TGI [29] of 30.2 µM. The TGI [30] was 62.9 µM, the TGI [31] was greater than 100 µM and the TGI [32] was greater than 100 µM. It also gave a TGI [59] of 28.6 µM, a TGI [33] greater than 100 µM and a TGI [34] of 34.4 µM. For the same compound, the TGI [35] was 84.7 µM, the TGI [36] was greater than 100 µM and the TGI [37] was 48.7 µM. It also gave a TGI [38] greater than 100 µM, a TGI [39] of 41 µM and a TGI [40] of 22.5 µM. For the same compound, the TGI [41] was greater than 100 µM, the TGI [42] was greater than 100 µM and the TGI [43] was 74.9 µM. For the same compound, the TGI [44] was 30.3 µM, the TGI [45] was 53.1 µM and the TGI [46] was 82.3 µM. For the same compound, the TGI [47] was greater than 100 µM, the TGI [48] was 67.6 µM and the TGI [49] was greater than 100 µM. For the same compound, the TGI [50] was 25.2 µM, the TGI [51] was 30.8 µM and the TGI [52] was 42.8 µM. For the same compound, the TGI [53] was 53.8 µM, the TGI [54] was 90 µM and the TGI [55] was 44.2 µM. It also gave a TGI [56] greater than 100 µM and a TGI [57] of 31.6 µM.
